# Experiments:
# Experiment in all cases: relative viability (nuclei count vs DMSO), 5 days (fraction); higher = more cells survive
# [1] = compound: CS(=O)(=O)c1ccc(C(=O)Nc2ccc(Cl)c(-c3ccccn3)c2)c(Cl)c1 [Vismodegib] + COc1cc2c(Oc3ccc(NC(=O)C4(C(=O)Nc5ccc(F)cc5)CC4)cc3F)ccnc2cc1OCCCN1CCOCC1 [Foretinib] (partner 0.25 µM)
# Procedure, shortened: (§1)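 Values are medians from duplicate plates. Each reflects relative viability, defined as the nuclei count of treated wells over that of vehicle wells. Lung cancer cell lines in 1536-well plates were pin-tool dosed one day after seeding with one drug alone or with a fixed anchor-drug dose plus five library-drug doses (not always all listed) in √10 steps, then fixed, stained and imaged at 4× after 5 days.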
# [2] = compound: N#CC[C@H](C1CCCC1)n1cc(-c2ncnc3[nH]ccc23)cn1 [Ruxolitinib] + COc1cccc2cc(-c3nc([C@H]4CC[C@H](C(=O)O)CC4)n4ncnc(N)c34)[nH]c12 [OSI-027] (partner 0.5 µM)
# Procedure, shortened: as §1
# [3] = compound: CS(=O)(=O)c1ccc(-c2cnc(N)c(C(=O)Nc3ccccc3)n2)cc1 [VE-821] + Nc1nc2[nH]cc(CCc3ccc(C(=O)N[C@@H](CCC(=O)O)C(=O)O)cc3)c2c(=O)[nH]1 [Pemetrexed] (partner 0.2 µM)
# Procedure, shortened: as §1
# [4] = compound: CS(=O)(=O)c1ccc(-c2cnc(N)c(C(=O)Nc3ccccc3)n2)cc1 [VE-821] + CCNC(=O)c1noc(-c2cc(C(C)C)c(O)cc2O)c1-c1ccc(CN2CCOCC2)cc1 [Luminespib] (partner 0.01 µM)
# Procedure, shortened: as §1
Cell Line,relative viability ([1]; first compound 0.08 µM),relative viability ([1]; first compound 0.253 µM),relative viability ([1]; first compound 0.8 µM),relative viability ([1]; first compound 2.53 µM),relative viability ([1]; first compound 8 µM),relative viability ([2]; first compound 0.08 µM),relative viability ([2]; first compound 0.253 µM),relative viability ([2]; first compound 0.8 µM),relative viability ([2]; first compound 2.53 µM),relative viability ([2]; first compound 8 µM),relative viability ([3]; first compound 0.08 µM),relative viability ([3]; first compound 0.253 µM),relative viability ([3]; first compound 0.8 µM),relative viability ([3]; first compound 2.53 µM),relative viability ([3]; first compound 8 µM),relative viability ([4]; first compound 0.08 µM),relative viability ([4]; first compound 0.253 µM),relative viability ([4]; first compound 0.8 µM),relative viability ([4]; first compound 2.53 µM),relative viability ([4]; first compound 8 µM)
SK-MES-1,0.865,0.91,0.961,0.889,0.918,0.676,0.587,0.702,0.534,0.512,0.98,0.934,0.838,0.612,0.352,1.09,0.797,0.746,0.537,0.306
HCC-827,0.995,1.03,0.972,1.01,0.866,,0.516,0.586,0.537,0.714,0.248,0.306,0.251,0.23,0.213,0.599,0.686,0.277,0.696,0.489
NCI-H596,0.826,0.83,0.463,0.964,1,0.826,0.699,0.841,0.69,0.758,0.511,0.48,0.485,0.454,0.374,0.978,1.09,1,1.03,0.738
COR-L23,0.957,0.929,0.891,0.973,1.06,0.806,0.743,0.868,0.729,0.645,0.198,0.211,0.196,0.197,0.16,0.835,0.651,0.633,0.342,0.446
201T,1.17,1.04,0.951,1.08,1.08,0.768,0.722,0.809,0.919,0.905,0.333,0.303,0.324,0.293,0.231,1.06,1.03,1.06,1.06,0.934
NCI-H322M,1.01,0.965,1.01,0.87,0.97,0.506,0.538,0.704,0.594,0.63,0.616,0.639,0.542,0.532,0.385,0.958,0.87,0.632,0.4,0.266
LU99A,0.866,0.775,0.751,0.725,0.79,0.339,0.305,0.298,0.295,0.268,0.191,0.156,0.16,0.125,0.113,0.274,0.261,0.241,0.199,0.194
NCI-H2405,1.05,1.04,0.995,1.01,1.08,,0.503,0.684,0.623,0.468,1.09,1.04,1.05,1.12,0.884,0.758,0.735,0.437,0.712,0.594
LK-2,1.14,0.974,1.13,1.34,1.38,0.222,0.187,0.18,0.182,0.214,0.357,0.295,0.299,0.267,0.262,0.18,0.182,0.149,0.205,0.181
HCC-366,0.893,0.925,0.877,0.956,0.864,0.984,0.771,1.01,0.819,0.828,0.159,0.127,0.144,0.0815,0.06,,,,,
NCI-H441,1.24,1.04,0.931,0.774,1.01,0.675,0.471,0.836,0.56,0.521,0.283,0.264,0.24,0.276,0.264,0.289,0.386,0.602,0.307,0.363
COR-L 105,1.23,0.829,1.17,0.82,0.994,0.535,0.536,0.705,0.667,0.531,1.07,0.965,0.74,1.04,0.712,0.692,0.771,0.51,0.632,0.524
A-427,1,1.01,1.08,1.11,1.11,0.434,0.465,0.566,0.364,0.439,0.997,0.949,0.947,0.998,0.474,1.08,1,0.69,0.745,0.3
HCC-44,,,,,,0.537,0.426,0.634,0.457,0.333,0.613,0.649,0.596,0.479,0.447,1.34,0.97,0.908,1.14,0.807
NCI-H2170,0.996,1,1.04,1.02,1.08,0.659,0.68,0.713,0.567,0.667,0.277,0.23,0.281,0.234,0.177,0.754,0.623,0.769,0.585,0.555
NCI-H1623,0.805,0.927,0.914,0.822,0.864,0.48,0.461,0.469,0.439,0.576,,,,,,0.588,0.473,0.605,0.509,0.505
NCI-H2228,0.866,1.02,0.871,0.769,1.01,0.629,0.419,0.743,0.446,0.289,0.333,0.373,0.301,0.253,0.156,0.125,0.165,0.131,0.132,0.0911

Cell Line,relative viability ([1]; first compound 0.08 µM),relative viability ([1]; first compound 0.253 µM),relative viability ([1]; first compound 0.8 µM),relative viability ([1]; first compound 2.53 µM),relative viability ([1]; first compound 8 µM),relative viability ([2]; first compound 0.08 µM),relative viability ([2]; first compound 0.253 µM),relative viability ([2]; first compound 0.8 µM),relative viability ([2]; first compound 2.53 µM),relative viability ([2]; first compound 8 µM),relative viability ([3]; first compound 0.08 µM),relative viability ([3]; first compound 0.253 µM),relative viability ([3]; first compound 0.8 µM),relative viability ([3]; first compound 2.53 µM),relative viability ([3]; first compound 8 µM),relative viability ([4]; first compound 0.08 µM),relative viability ([4]; first compound 0.253 µM),relative viability ([4]; first compound 0.8 µM),relative viability ([4]; first compound 2.53 µM),relative viability ([4]; first compound 8 µM)
ABC-1,0.894,1.15,1.14,1.08,1.23,,0.379,0.83,0.455,0.539,,,,,,0.614,0.401,0.469,0.49,0.328
LOU-NH91,0.943,0.925,0.905,0.867,0.912,,0.733,0.729,0.746,0.686,0.385,0.355,0.345,0.323,0.4,0.431,0.366,0.319,0.345,0.279
NCI-H727,0.973,0.867,0.896,0.761,0.792,0.557,0.482,0.817,0.472,0.524,,,,,,0.317,0.342,0.368,0.346,0.353
NCI-H2023,0.974,0.804,0.881,0.834,0.999,0.455,0.298,0.556,0.343,0.411,0.24,0.202,0.17,0.123,0.0894,0.734,0.624,0.458,0.212,0.125
NCI-H1563,0.895,1.02,0.922,0.936,1.02,0.803,0.721,0.714,0.658,0.675,0.778,0.7,0.613,0.761,0.481,0.56,0.499,0.491,0.509,0.338
LCLC-103H,0.747,0.758,0.73,0.756,0.776,0.497,0.394,0.48,0.45,0.488,0.47,0.439,0.518,0.475,0.437,1.1,0.925,0.898,0.947,0.718
HARA,0.977,0.992,0.41,0.805,1.03,0.727,0.372,0.601,0.416,0.481,0.253,0.232,0.201,0.169,0.131,0.956,0.836,0.579,0.695,0.448
NCI-H1703,0.383,0.344,0.379,0.336,0.316,,,,,,,,,,,,,,,
HCC-78,0.515,0.538,0.511,0.593,0.532,0.36,0.337,0.33,0.383,0.365,0.875,0.904,0.903,0.853,0.89,,,,,
EBC-1,0.102,0.102,0.0802,0.097,0.105,,,,,,,,,,,,,,,
NCI-H1299,1.06,1.11,1.13,1.07,1.09,,,,,,,,,,,,,,,
Calu-6,0.761,0.837,0.863,0.852,0.9,,,,,,,,,,,,,,,
NCI-H1792,,,,,,0.694,0.624,0.675,0.529,0.6,1.19,0.59,0.865,0.996,0.568,0.462,0.524,0.367,0.506,0.359
IA-LM,1.2,1.15,1.28,1.04,1.2,,,,,,,,,,,,,,,
NCI-H1648,,,,,,,0.269,0.257,0.308,0.279,0.977,,0.569,0.63,0.611,,,,,
NCI-H522,,,,,,0.811,0.667,0.78,0.628,0.605,1.28,1,0.909,1.16,0.778,1.11,1.21,0.958,0.997,0.897
A549,1.03,0.928,1.05,0.969,0.943,,,,,,,,,,,,,,,
